Assay [1] concerns mESC lines E14 and R1. Briefly: Whole gene expression profiling (microarray) of mESC lines E14 and R1. The format is cell-based, mouse. How it is done: The quality of total RNA was first assessed using an Agilent Bioanalyzer 2100 (Agilent Technologies, Palo Alto, Calif.). Biotin-labeled cDNA targets were synthesized starting from 150 ng of total RNA. Double stranded cDNA synthesis and related cRNA was performed with GeneChip® WT Plus Kit (Affymetrix, Santa Clara, Calif.). With the same kit was synthesized the sense strand cDNA before to be fragmented and labeled. […] Each eukaryotic GeneChip® probe array contains probe sets for several B. subtilis genes that are absent in the samples analyzed (lys, phe, thr, and dap). This Poly-A RNA Control Kit contains in vitro synthesized, polyadenylated transcripts for these B. subtilis genes that are pre-mixed at staggered concentrations to allow GeneChip® probe array users to assess the overall success of the assay.
Hybridization was performed using the GeneAtlas™ Hybridization, Wash and Stain Kit. […] Targets were diluted in hybridization buffer at a concentration of 0.05 μg/ul, denatured at 99° C. for 5 minutes, incubated at 45° C. for 5 minutes and centrifuged at 5,000 rpm for 1 minute. The Array Strip is then moved to a hybridization tray, which contains the hybridization cocktails. A single Gene 2.1 PEG Array Strip is hybridized with four different biotin-labeled targets. Hybridizations were performed for 20 hours at 48° C. in the GeneAtlas™ Hybridization Station. The Array Strips were washed and stained in the GeneAtlas™ Personal Fluidics Station. At the end of this procedure the array strips were placed into the imaging tray, which contains the Array Holding buffer.
The array strips were imaged using the GeneAtlas™ Imaging Station. Affymetrix GeneAtlas™ Command Console software was used to acquire the Array Strip images and […].
The CAMERA gene set enrichment p-values were calculated using the limma package and the camera function 30.
In the GSVA based enrichment analysis, we used the MsigDB gene sets, and transformed the individual gene expression values into gene set expression values with the GSVA package 32. We calculated the gene set differential expression as in the gene level differential expression analysis, only skipping the RMA normalization step.

Assay [2] relates to ESC lines E14, R1 and MC1. Briefly: High-throughput transcriptional profiling (RNA sequencing) of ESC lines E14, R1 and MC1. The format is cell-based, mouse. The procedure:
RNA samples were quantified using Qubit 2.0 Fluorometer (Life Technologies, Carlsbad, Calif., USA) and RNA integrity was checked with RNA Screen Tape on Agilent 2200 TapeStation (Agilent Technologies, Palo Alto, Calif., USA). […] RNA sequencing library preparation was prepared using Ribo-Zero rRNA Removal Kit and TruSeq Stranded Total RNA library Prep kit following manufacturer's protocol (Illumina, Cat # RS-122-2101). Briefly, rRNA was depleted with Ribo-Zero rRNA Removal Kit. rRNA depleted RNAs were fragmented for 8 minutes at 94° C. First strand and second strand cDNA were subsequently synthesized. The second strand of cDNA was marked by incorporating dUTP during the synthesis. cDNA fragments were adenylated at 3′ends, and indexed adapter was ligated to cDNA fragments. Limited cycle PCR was used for library enrichment. The incorporated dUTP in second strand cDNA quenched the amplification of second strand, which helped to preserve the strand specificity. Sequencing libraries were validated using DNA Analysis Screen Tape on the Agilent 2200 TapeStation (Agilent Technologies, Palo Alto, Calif., USA), and quantified by using Qubit 2.0 Fluorometer (Invitrogen, Carlsbad, Calif.) as well as by quantitative PCR (Applied Biosystems, Carlsbad, Calif., USA).
The sequencing libraries were multiplexed and clustered on 1 lane of flowcell. […] On average ˜29 million reads were generated for a sample and average insert size ranged between 204-231 for the samples.
Transcript and gene level quantification was done with Kallisto (version 0.43.0)^16. […] Additionally, all reads were mapped with the STAR spliced aligner (version 2.5.2b)^17 to the GRCm38 (mm10) genome after trimming the reads to 100 bp with Trimmomatic (version 0.36)^18. Repeat expression was quantified by counting fragments overlapping with the repeat annotation from the Choi et al. 2017 paper, with using FeatureCounts from the subread package (version 1.5.2)^19. […]
Read counts for each sample estimated by Kallisto were imported into the R statistical environment (version 3.2.2) using tximport (version 1.1.2)^20. […]

Take `C[C@@]1(CO)[C@H](O)CC[C@@]2(C)[C@H]1CC[C@H]1C[C@@H]3C[C@@]12CC[C@]3(O)CO` [APH, aphidicolin]: in assay [1] (APH treatment, E14 and R1), the downregulated genes worked out at 21 genes and the “upregulated genes with more than two-fold changes” value amounted to 193 genes. In addition, the “DEGs overlapping with totipotency specific genes” value in assay [1] (APH treatment, 43 out of 201, compared with published datasets) was 17%. Besides, the “two placenta-related gene categories (MSigDB gene-sets analysis)” value in assay [1] (APH vs CNTL) is “strong and highly significant enrichment”. Also, in assay [2] (APH treatment, FDR<0.05), the downregulated genes was determined as 640 genes and the “upregulated genes with more than two-fold change” value amounted to 3074 genes.
Consider `CNCc1ccc(-c2cc(-c3nc(-c4ccc(S(=O)(=O)C(C)C)cc4)cnc3N)on2)cc1` [VE 822], for which the “APH induced 2C-like genes which reverted their expression level” value in assay [1] (31 out of 43, inhibitor added after APH) was 72%. The “two placenta-related gene categories upon ATR inhibition” value in assay [1] (APH plus inhibitor) was “robustly suppressed”. Besides, the “DNA repair signaling pathway (geneset enrichment analysis)” value in assay [1] (inhibitor added after APH-induced replication stress) was “robust silencing”. The “genes shared between APH and DUX-induced condition rescued” value in assay [2] (APH plus ATRi) is given as 71%.

Values taken from patent publication US20200131473A1, “METHOD OF GENERATING 2 CELL-LIKE STEM CELLS” (IFOM FONDAZIONE ISTITUTO FIRC DI ONCOLOGIA MOLECOLARE, priority 2017, published 2020).
